{"source": "patent US20230141403A1", "about": "(Hoffmann-La Roche Inc., priority 2020, published 2023)", "note": "Counter-ions that a name gives are not always drawn."}
{"test_system": "Acinetobacter baumannii ATCC17978", "test": "Antimicrobial susceptibility testing: 90% growth inhibitory concentration (IC90) determination", "type": "cell-based", "conditions": "ATCC17978, 90% growth inhibitory concentration, Iso-Sensitest broth, optical density at 600 nm over 16h, 35±2° C., read-out: AB ATCC 17978 IC90", "method": "(§1) Antimicrobial Susceptibility Testing:\n(§2) 90% Growth Inhibitory Concentration (IC90) Determination\n(§3) The in vitro antimicrobial activity of the compounds was determined according to the following procedure:\n(§4) The assay used a 10-points Iso-Sensitest broth medium to measure quantitatively the in vitro activity of the compounds against Acinetobacter baumannii ATCC17961 or ATCC17978.\n(§5) Stock compounds in DMSO were serially twofold diluted (e.g. range from 50 to 0.097 μM final concentration) in 384 wells microtiter plates and inoculated with 49 μl the bacterial suspension in Iso-Sensitest medium to have a final cell concentration of ˜5×10^(5) CFU/ml in a final volume/well of 50 ul/well. Microtiter plates were incubated at 35±2° C.\n(§6) Bacterial cell growth was determined with the measurement of optical density at λ=600 nm each 20 minutes over a time course of 16h. Growth inhibition was calculated during the logarithmic growth of the bacterial cells with determination of the concentration inhibiting 50% (IC50) and 90% (IC90) of the growth.\n(§7) Table 1 provides the 90% growth inhibitory concentrations (IC90) in micromoles per liter of the compounds of present invention obtained against the strain Acinetobacter baumannii ATCC17978.", "units": {"IC90": "µM"}}
{"smiles": "CCc1cc(Nc2nccn3c(-c4ccc(OC)c(Cl)c4)cnc23)ccc1NC(C)=O", "note": "[Example 45, N-(4-((3-(3-chloro-4-methoxyphenyl)imidazo[1,2-a]pyrazin-8-yl)amino)-2-ethylphenyl)acetamide]", "IC90": 0.16}
{"smiles": "COc1ccc(-c2cnc3c(Nc4ccc(NC(=O)CN5CCNCC5)c(C)c4)nccn23)cc1Cl", "note": "[Example 49, N-(4-((3-(3-chloro-4-methoxyphenyl)imidazo[1,2-a]pyrazin-8-yl)amino)-2-methylphenyl)-2-(piperazin-1-yl)acetamide]", "IC90": 0.3}
{"smiles": "COc1ccc(-c2cnc3c(Nc4ccc(NC(=O)CCl)cc4)nccn23)cc1", "note": "[Example 51, 2-chloro-N-(4-((3-(4-methoxyphenyl)imidazo[1,2-a]pyrazin-8-yl)amino)phenyl)acetamide]", "IC90": 0.75}
{"smiles": "COc1ccc(-c2cnc3c(Nc4ccc(N5CCCC5=O)c(C)c4)nccn23)cc1", "note": "[Example 58, 1-(4-((3-(4-methoxyphenyl)imidazo[1,2-a]pyrazin-8-yl)amino)-2-methylphenyl)pyrrolidin-2-one]", "IC90": 0.26}
{"smiles": "CC(=O)Nc1ccc(Nc2nccn3c(-c4ccc(F)c(F)c4F)cnc23)cc1C", "note": "[Example 87, N-(2-methyl-4-((3-(2,3,4-trifluorophenyl)imidazo[1,2-a]pyrazin-8-yl)amino)phenyl) acetamide]", "IC90": 0.26}
{"smiles": "O=S1(=O)CCCN1c1ccc(Nc2nccn3c(-c4ccc(OC(F)F)cc4)cnc23)cc1", "note": "[Example 1, 3-[4-(difluoromethoxy)phenyl]-N-[4-(1,1-dioxo-1,2-thiazolidin-2-yl)phenyl]imidazo[1,2-a]pyrazin-8-amine]", "IC90": 0.33}
{"smiles": "COc1ccc(-c2cnc3c(Nc4ccc(S(C)(=O)=O)cc4)nccn23)cc1", "note": "[Example 52, 3-(4-Methoxyphenyl)-N-(4-(methylsulfonyl)phenyl)imidazo[1,2-a]pyrazin-8-amine]", "IC90": 0.98}
{"smiles": "COc1ccc(-c2cnc3c(Nc4ccc(S(=O)(=O)N(C)C)cc4)nccn23)cc1", "note": "[Example 77, 4-((3-(4-methoxyphenyl)imidazo[1,2-a]pyrazin-8-yl)amino)-N,N-dimethylbenzenesulfonamide]", "IC90": 0.63}
{"smiles": "COc1ccc(-c2cnc3c(Nc4ccc(NC(=O)COCCN)cc4)nccn23)cc1Cl", "note": "[Example 14, 2-(2-aminoethoxy)-N-[4-[[3-(3-chloro-4-methoxy-phenyl)imidazo [1,2-a]pyrazin-8-yl]amino]phenyl] acetamide; 2,2,2-trifluoroacetic acid]", "IC90": 0.64}
{"smiles": "COc1ccc(-c2cnc3c(Nc4ccc(NC(C)=O)c(C)c4)nccn23)cc1F", "note": "[Example 47, N-(4-((3-(3-fluoro-4-methoxyphenyl)imidazo[1,2-a]pyrazin-8-yl)amino)-2-methylphenyl)acetamide]", "IC90": 0.13}
{"smiles": "COc1ccc(-c2cnc3c(Nc4ccc(N5CCCCC5=O)cc4)nccn23)cc1Cl", "note": "[Example 44, 1-(4-((3-(3-Chloro-4-methoxyphenyl)imidazo[1,2-a]pyrazin-8-yl)amino)phenyl)piperidin-2-one]", "IC90": 0.26}
{"smiles": "CC(=O)Nc1ccc(Nc2nccn3c(-c4ccc(Cl)cc4)cnc23)cc1", "note": "[Example 42, N-(4-((3-(4-chlorophenyl)imidazo[1,2-a]pyrazin-8-yl)amino)phenyl)acetamide]", "IC90": 0.83}
{"smiles": "COc1ccc(-c2cnc3c(Nc4ccc(NC(C)=O)c(Cl)c4)nccn23)cc1Cl", "note": "[Example 46, N-(2-chloro-4-((3-(3-chloro-4-methoxyphenyl)imidazo[1,2-a]pyrazin-8-yl)amino)phenyl)acetamide]", "IC90": 0.89}
{"smiles": "O=C1CCCN1c1ccc(Nc2nccn3c(-c4ccc(OC(F)F)cc4)cnc23)cc1", "note": "[Example 35]", "IC90": 0.15}
{"smiles": "COc1ccc(-c2cnc3c(Nc4ccc(NC(=O)CO)cc4)nccn23)cc1F", "note": "[Example 12, N-[4-[[3-(3-fluoro-4-methoxy-phenyl)imidazo [1,2-a]pyrazin-8-yl]amino]phenyl]-2-hydroxy-acetamide; 2,2,2-trifluoroacetic acid]", "IC90": 0.89}
{"smiles": "COc1ccc(-c2cnc3c(Nc4ccc(S(=O)(=O)N5CCN(C)CC5)cc4)nccn23)cc1", "note": "[Example 79, 3-(4-methoxyphenyl)-N-(4-((4-methylpiperazin-1 - yl)sulfonyl)phenyl) imidazo[1,2-a]pyrazin-8-amine]", "IC90": 0.85}
{"smiles": "COc1ccc(-c2cnc3c(Nc4ccc(NC(C)=O)cc4)nccn23)cc1F", "note": "[Example 16, N-(4-((3-(3-fluoro-4-methoxyphenyl)imidazo[1,2-a]pyrazin-8-yl)amino)phenyl)acetamide]", "IC90": 0.4}
{"smiles": "CCc1cc(Nc2nccn3c(-c4ccc(OC)c(F)c4F)cnc23)ccc1N", "note": "[Example 92, N1-(3-(2,3-difluoro-4-methoxyphenyl)imidazo[1,2-a]pyrazin-8-yl)-3-ethylbenzene-1,4-diamine]", "IC90": 0.7}
{"smiles": "COc1ccc(-c2cnc3c(Nc4ccc(CO)c(C)c4)nccn23)cc1", "note": "[Example 120]", "IC90": 0.74}
{"smiles": "COc1ccc(-c2cnc3c(Nc4ccc(NC(=O)COCCN)c(C)c4)nccn23)cc1", "note": "[Example 75, 2-(2-aminoethoxy)-N-(4-((3-(4-methoxyphenyl)imidazo[1,2-a]pyrazin-8-yl)amino)-2-methylphenyl)acetamide hydrochloride]", "IC90": 0.28}
{"smiles": "CC1CCC(=O)N1c1ccc(Nc2nccn3c(-c4ccc(OC(F)F)cc4)cnc23)cc1", "note": "(stereo not shown) [Example 95, 1-(4-((3-(4-(difluoromethoxy)phenyl)imidazo[1,2-a]pyrazin-8-yl)amino)phenyl)-5-methylpyrrolidin-2-one]", "IC90": 0.38}
{"smiles": "COc1ccc(-c2cnc3c(Nc4ccc(S(C)(=O)=O)c(Cl)c4)nccn23)cc1", "note": "[Example 81, N-(3-chloro-4-(methylsulfonyl)phenyl)-3-(4-methoxyphenyl) imidazo [1,2-a]pyrazin-8-amine]", "IC90": 0.63}
{"smiles": "CC(=O)Nc1ccc(Nc2nccn3c(-c4ccc(OCC#N)cc4)cnc23)cc1C", "note": "[Example 88, N-(4-((3-(4-(cyanomethoxy)phenyl)imidazo[1,2-a]pyrazin-8-yl)amino)-2-methylphenyl) acetamide]", "IC90": 0.33}
{"smiles": "O=C1CCCN1c1ccc(Nc2nccn3c(-c4ccc(OC(F)F)c(F)c4)cnc23)cc1", "note": "[Example 57, 1-(4-((3-(4-(difluoromethoxy)-3-fluorophenyl)imidazo [1,2-a]pyrazin-8-yl)amino)phenyl)pyrrolidin-2-one]", "IC90": 0.14}
{"test_system": "Acinetobacter baumannii ATCC17978", "test": "Antimicrobial susceptibility testing: 90% growth inhibitory concentration (IC90) determination", "type": "cell-based", "conditions": "ATCC17978, 16 h, read-out: AB ATCC 17978 IC90 (uM)", "method": "as §1, §2, §3, §4, §5, §6, §7", "units": {"IC90": "µM"}}
{"smiles": "COc1ccc(-c2cnc3c(Nc4ccc(NC(=O)COCCOCCN)cc4)nccn23)cc1Cl", "note": "[Example 13, 2-[2-(2-aminoethoxy)ethoxy]-N-[4-[[3-(3-chloro-4-methoxy-phenyl)imidazo[1,2-a]pyrazin-8-yl]amino]phenyl]acetamide; 2,2,2-trifluoroacetic acid]", "IC90": 0.81}
{"smiles": "COc1ccc(-c2cnc3c(Nc4ccc5c(c4)CCCC(=O)N5)nccn23)cc1F", "note": "[Example 5, 7-[[3-(3-fluoro-4-methoxy-phenyl)imidazo[1,2-a]pyrazin-8-yl]amino]-1,3,4,5-tetrahydro-1-benzazepin-2-one hydrochloride]", "IC90": 0.88}
{"smiles": "CCc1cc(Nc2nccn3c(-c4ccc(OC)c(F)c4F)cnc23)ccc1NC(=O)CCN", "note": "[Example 93, 3-amino-N-(4-((3-(2,3-difluoro-4-methoxyphenyl)imidazo[1,2-a]pyrazin-8-yl)amino)-2-ethylphenyl)propanamide hydrochloride]", "IC90": 0.18}
{"smiles": "COc1ccc(-c2cnc3c(Nc4ccc(N(C)C(C)=O)cc4)nccn23)cc1Cl", "note": "[Example 7]", "IC90": 0.86}
